The assay relates to diabetic neuropathy (nerve conduction, vasa nervorum, NGF). Nature of the assay: Streptozotocin (STZ) diabetic rat model of diabetic neuropathy. It counts as in vivo. Here is the method:
Diabetes was induced in male Wistar rats (Charles River, UK or Harlan, San Diego, USA) with an intraperitoneal injection (55 mg/kg) of streptozotocin (STZ; Sigma) given after an overnight fast. The drug was freshly dissolved in sterile saline immediately before injection. Three days later, tail vein blood glucose was measured by a strip-operated reflectance photometer and any STZ-treated rats with blood glucose <15 mmol/l were removed from the study. Rats were group-housed with free access to food and water in a 12 h light/dark cycle. At the end of each study, blood samples were collected from all rats, plasma extracted and plasma glucose levels measured by spectophotometric assay using a commercial kit (Sigma, St. Louis, Mo.). […] Motor nerve conduction velocity (MNCV) was measured from latencies of the compound M waves of the electromyogram in the hindlimb, and sensory nerve conduction velocity (SNCV) was measured from H reflex latencies in the same system. […] Stimulation of the nerve was performed at the sciatic notch and Achilles tendon and evoked electromyograms were recorded from the interosseus muscles of the foot. […] NGF was measured in extracts from segments of sciatic nerve by ELISA as described by P. Fernyhough et al. Human recombinant nerve growth factor replaces deficient neurotrophic support in the diabetic rat. […]

Turning to `CNC1CCC(N(Cc2ccc(OC)c(-c3ccc(C#N)cc3)c2)C(=O)c2sc3ccccc3c2Cl)CC1` (centres unmarked) [D], for the setting “laser Doppler perfusion imaging and BS-1 lectin fluorescent imaging”, the “blood flow to the damaged nerves (sciatic vasa nervorum)” value was “improved”. Also, the “levels of nerve growth factor (NGF) in the sciatic nerve” value (rat STZ model) is given as “increased levels of nerve growth factor (NGF)”.
